Results published in patent US7435754B2, “Laulimalide microtubule stabilizing agents” (Utah State University, priority 2000, dated 2008).
Like-named read-outs stand apart in the source and are kept apart here.

Legend:
[1] = tested on: SKVLB-1 cell line (P-glycoprotein-overexpressing sub-line of SK-OV-3); assay: Inhibition of cell proliferation, SRB assay, multidrug-resistant SKVLB-1; assay type: cell-based, human; details: for IC50: Homo sapiens, read-out: IC50 for inhibition of cell proliferation; for Resistance Factor: drug-resistant SKVLB-1 versus parental SK-OV-3 IC50
Description: (§1) The A-10 rat aortic smooth muscle and SK-OV-3 human ovarian carcinoma cell lines were obtained from the American Type Culture Collection (Manassas, Va.) and were cultured in BME containing 10% FBS and 50 μg/mL gentamycin sulfate. A sub-line of SK-OV-3 selected for resistance to vinblastine (SKVLB-1) was provided by Dr. Victor Ling (British Columbia Cancer Center, Vancouver, British Columbia) and was maintained in BME containing 10% FBS and 50 μg/mL gentamycin sulfate. The MDA-MB-435 human mammary adenocarcinoma cell line was obtained from Dr. Mai Higazi (Georgetown University, Washington, D.C.), and was maintained in Richters medium containing 10% FBS and 50 μg/mL gentamycin sulfate. Vinblastine was added to a final concentration of 1 μg/mL to SKVLB-1 cells 24 hours after passage to maintain selection pressure for P-glycoprotein-overexpressing cells.
(§2) The IC50 for inhibition of cell proliferation was determined by measuring cell-associated protein after drug treatment using the sulforhodamine B assay.
(§3) The early literature on laulimalide reported that it was a cytotoxin, but without specifying a mechanism. Experiments were conducted to determine the IC50 values for laulimalide and isolaulimalide in two drug-sensitive cell lines, MDA-MB-435 and SK-OV-3, and in a multidrug-resistant cell line, SKVLB-1. Cells were treated with varying concentrations of the drugs for 48 hours, and cell-associated protein was determined using the SRB assay. The IC50 for each compound was calculated for each cell line.

[2] = tested on: A-10 cells; assay: Immunofluorescence of cellular microtubules and mitotic spindles; assay type: cell-based, rat; details: for sensitivity of stabilized cellular microtubules to vinblastine / morphological effects on cellular microtubules: A-10 cells; for effect on mitotic spindles: A-10 cells and SK-OV-3 cells; for morphological effects on cellular microtubules: 18 hours, laulimalide 2 μM, isolaulimalide 2-20 μM, paclitaxel 1-20 μM
Description: A-10 cells were grown to 70-85% confluence on glass coverslips in BME supplemented with 10% FBS. Drug compounds in PBS were added to the indicated final concentrations and cells were incubated for an additional […].
(§4) For the staining of microtubules and intermediate filaments, the cells were fixed with cold methanol for 5 minutes, blocked for 20 minutes with PBS containing 10% calf serum to block nonspecific binding sites, and incubated at 37° C. for 90 min with monoclonal anti-β-tubulin at the dilutions recommended by the manufacturer. Bound primary antibodies were subsequently visualized by a one hour incubation with fluorescein(FITC)-conjugated sheep antimouse IgG (F-3008; Sigma). The coverslips were washed, stained with 0.1 μg/mL DAPI for 10 minutes, mounted on microscope slides and the fluorescence patterns were examined and photographed using a Zeiss Axioplan microscope equipped with epifluorescence optics for fluorescein and DAPI.
A-10 cells were treated with laulimalide, isolaulimalide, or paclitaxel for 18 hours and the morphological effects on microtubules examined by indirect immunofluorescence techniques.

[3] = tested on: MDA-MB-435 human mammary adenocarcinoma cell line; assay: Inhibition of cell proliferation, sulforhodamine B (SRB) assay, MDA-MB-435; assay type: cell-based; details: for IC50: Homo sapiens
Description: as §1, §2, §3

[4] = tested on: SK-OV-3 human ovarian carcinoma cell line; assay: Inhibition of cell proliferation, SRB assay, SK-OV-3; assay type: cell-based; details: read-out: IC50 for inhibition of cell proliferation
Description: as §1, §2, §3

[5] = tested on: bovine brain tubulin; assay: Tubulin polymerization in vitro; assay type: biochemical; details: for effect on tubulin polymerization (in words): absence of polymerization promoters; for EC50: Table 2
Description: FIG. 3 collectively is a graphic representation comparing the effects of Laulimalide and paclitaxel on tubulin polymerization, in which the polymerization of bovine brain tubulin was monitored, and in which:
One characteristic of the microtubule-stabilizing agents paclitaxel, discodermolide, epothilones A and B, and eleutherobin is the ability of these agents to initiate the polymerization of tubulin in the absence of polymerization promoters, such as glycerol. Studies were undertaken to determine the effects of laulimalide on tubulin polymerization.
Samples of the tubulin polymer formed were examined by electron microscopy to determine whether the increase in turbidity measured during the polymerization experiments was due to the formation of microtubule-like polymers or the formation of other structures.

[6] = tested on: A-10 cells; assay: Micronuclei formation, DAPI staining; assay type: cell-based, rat; details: for effect on nuclear structure: A-10 and SK-OV-3 cells, wide range of concentrations; for cells exhibiting micronuclei: A-10 cells, 0.02-2 μM, 18 hours
Description: FIG. 1 is a graphic representation comparing the effects of Laulimalide and paclitaxel on micronuclei formation, in which A-10 cells were treated for 18 hours with Laulimalide or paclitaxel, the cells were fixed and nuclei were visualized by DAPI staining;
as §4
The effects of laulimalide on nuclear structure are visible: The normal rounded shape of the nucleus, which is devoid of microtubules, can be detected, whereas in laulimalide-treated cells this distinct microtubule-free area containing the discrete central nucleus was lost and only vesicle-like areas devoid of microtubules remained. […] Similar nuclear changes occurred with isolaulimalide. Paclitaxel also initiated the formation of micronuclei, as has been reported by others.
The difference between the two drugs was statistically significant at all five concentrations tested (P<0.0001).

[7] = tested on: MDA-MB-435 cells; assay: Cell cycle distribution by flow cytometry; assay type: cell-based, human; details: MDA-MB-435, 20 nM
Description: FIG. 2 collectively is a graphic representation comparing the effects of Laulimalide on cell cycle distribution, wherein log phase growth cultures of MDA-MB-435 cells were treated, the cells were fixed, stained, and analyzed on a Coulter EPICS XL-MCL flow cytometer and plotted as events versus propidium iodide fluorescene intensity, and in which:
A common characteristic of anti-microtubule agents is their ability to initiate mitotic arrest. […] This is consistent with the effects of other antimicrotubule agents, where disruption of microtubule dynamics prevents normal mitotic progression and leads to mitotic arrest. […] The mitotic cells were rounded, and the spindles formed a circular pattern with spindle microtubules radiating outward from a microtubule-free core in the center of the cell. In the mitotic cells, the nuclear membranes were not apparent, and the chromatin was condensed and aligned in a circular pattern.
The ultimate mechanism of action of many cytotoxic cancer chemotherapeutic agents is the initiation of pathways of gene and protein expression leading to apoptosis. Antimicrotubule drugs including paclitaxel, vinblastine, and cryptophycin 1 initiate apoptosis both in vitro and in vivo. […] The loss of cellular DNA is detected by the appearance of the subdiploid peak when apoptotic cells are analyzed by flow cytometry. […]

[8] = tested on: caspase 3 / PARP; assay: Caspase 3 activation and PARP proteolysis, immunoblot of cell lysates; assay type: cell-based; details: cells treated 42 and 48 hours
Description: During apoptosis, specific cysteine proteases called the caspases are activated. Activation of the caspase cascade leads to the proteolytic degradation of specific cellular proteins. The activation of caspase 3 and the proteolysis of the DNA repair enzyme PARP, a downstream substrate of caspase 3, were examined in cell lysates from laulimalide-treated cells. Activation of caspase 3 leads to the loss of the 32 kDa proenzyme and the formation of the activation products p17 and p12. […] The loss of the p32 proenzyme is seen at 48 hours. The specific proteolysis of PARP by caspase 3 leads to the formation of two products, an 89 kDa COOH-terminal fragment and a 24 kDa N-terminal fragment. The proteolysis of PARP and the appearance of the 89 kDa degradation product coincided with the activation of caspase 3.

[9] = tested on: A-10 rat aortic smooth muscle cell line; assay: Inhibition of cell proliferation, A-10 nontransformed line; assay type: cell-based
Description: as §1, §2
The IC50 for inhibition of proliferation was also determined in the A-10 cell line, a nontransformed line that was used to show the effects of microtubule-stabilizing agents on cellular structures. […]

[10] = MDA-MB-435, 48 h, read-out: IC50 for inhibition of cell proliferation

Structure (SMILES) | IC50 ([1]; SKVLB1, 48 h) | Resistance Factor [1] | sensitivity of stabilized cellular microtubules to vinblastine [2] | effect on mitotic spindles [2] | morphological effects on cellular microtubules [2] | IC50 [3, 10] | IC50 ([4]; SK-OV-3, 48 h) | effect on tubulin polymerization (in words) [5] | effect on nuclear structure [6] | polymerization of tubulin at 0° C. [5] | EC50 [5] | cells exhibiting micronuclei [6] | other results
C=C1C[C@H](C)C[C@@H]2CC=C[C@@H](C/C=C\C(=O)OC3CC(OC3/C=C/[C@@H]3CC(C)=CCO3)[C@@H](O)[C@@H](O)C1)O2 (stereo partly drawn) [Isolaulimalide, isolaulimalide] | 2650 nM | 1.03 | resistant to vinblastine-induced depolymerization | Abnormal mitotic spindles | increase in the density of cellular microtubules, but no microtubule bundles were present | 1970 nM | 2570 nM | stimulated tubulin polymerization | formation of multiple micronuclei |  |  |  | IC50 values, inhibition of cell proliferation (in words) ([3]; cell lines of Table 1): low μM range
C=C1C[C@H](C)C[C@@H]2CC=C[C@@H](C/C=C\C(=O)OC([C@@H](O)/C=C/[C@@H]3CC(C)=CCO3)C[C@@H]3OC3[C@@H](O)C1)O2 (stereo partly drawn) [Laulimalide, laulimalide] | 1210 nM | 105 | resistant to vinblastine-induced depolymerization | Abnormal mitotic spindles | bundles of short tufts of microtubules | 5.74 ± 0.58 nM | 11.5 ± 0.53 nM | stimulated tubulin polymerization | formation of multiple micronuclei | Neither paclitaxel nor laulimalide promoted the polymerization | 4320 ± 400 nM | approximately 60% | IC50 ([3]; MDA-MB-435, read-out: IC50 values, inhibition of cell proliferation (summary of Table 1)): 5 to 12 nM; kinetics of tubulin formation relative to 20 μM paclitaxel ([5]; 20 μM): twice as fast; additional tubulin polymer formed relative to paclitaxel ([5]; 20 μM of each drug): approximately 30%; stability of tubulin polymers formed ([5]; cold and CaCl2): insensitive to cold and CaCl2-induced depolymerization; subdiploid peak (apoptosis) ([7]; 18 hours): doubling of the subdiploid peak; effect on cell cycle ([7]; within nine hours): cell cycle arrest in G2-M; caspase 3 activation and PARP cleavage [8]: Caspase 3 was activated and PARP proteolytically cleaved; IC50 ([9]; A10, read-out: IC50 for inhibition of proliferation): 51000 nM
CC(=O)O[C@H]1C(=O)[C@@]2(C)[C@H]([C@H](OC(=O)c3ccccc3)[C@]3(O)C[C@H](OC(=O)[C@H](O)[C@@H](NC(=O)c4ccccc4)c4ccccc4)C(C)=C1C3(C)C)[C@]1(OC(C)=O)CO[C@@H]1C[C@@H]2O [Paclitaxel, reference compound] |  | >58,480 | resistant to vinblastine-induced depolymerization | Abnormal mitotic spindles | formation of a highly organized array of microtubules, some of which formed thick microtubule bundles |  |  |  |  | Neither paclitaxel nor laulimalide promoted the polymerization | 1440 ± 60 nM | approximately 40% | IC50 ([1]; SKVLB1, SKVLB (SKVLB-1), 48 hours, SRB, mean ± SD): > 100000 nM; inhibition of the SKVLB-1 cell line ([1]; concentrations up to 100 μM): ≤ 70%; IC50 ([3]; MDA-MB-435, 48 hours, SRB, mean ± SD, read-out: IC50 for inhibition of cell proliferation): 1.02 ± 0.25 nM; IC50 ([4]; SK-OV-3, 48 hours, SRB, mean ± SD): 1.71 ± 1.07 nM; IC50 ([9]; A10, A-10 cell line, read-out: IC50 for inhibition of proliferation): 40000 nM
